Measured values from patent US10065963B2 (Incyte Corporation, priority 2015, dated 2018).
Structures can show the parent of a compound that is named as a salt. Where two headings read alike, the source gives them in different places.

Assays:
[1] = tested on: Phosphorylated Ribosomal Protein S6 (RPS6) in THP-1 cells; experiment: THP-1 RPS6 ELISA assay; type: cell-based, human; details: 10 nM MCP-1, read-out: PI3Kγ_THP1_RPS6_ELISA IC50
[2] = target: PI3Kδ (p110δ/p85α) Recombinant Human Protein (Homo sapiens (Human), UniProt O00329); experiment: PI3Kδ scintillation proximity assay; type: biochemical; details: 2 μM ATP, 20 μM PIP2
[3] = target: PI3Kγ (p110γ) Recombinant Human Protein (Homo sapiens (Human), UniProt P48736); experiment: PI3K-γ scintillation proximity assay; type: biochemical; details: 2 μM ATP, 20 μM PIP2
[4] = Homo sapiens, THP-1, THP-1 cells

Chain of PI3Kγ (p110γ) Recombinant Human Protein (P48736 whole entry): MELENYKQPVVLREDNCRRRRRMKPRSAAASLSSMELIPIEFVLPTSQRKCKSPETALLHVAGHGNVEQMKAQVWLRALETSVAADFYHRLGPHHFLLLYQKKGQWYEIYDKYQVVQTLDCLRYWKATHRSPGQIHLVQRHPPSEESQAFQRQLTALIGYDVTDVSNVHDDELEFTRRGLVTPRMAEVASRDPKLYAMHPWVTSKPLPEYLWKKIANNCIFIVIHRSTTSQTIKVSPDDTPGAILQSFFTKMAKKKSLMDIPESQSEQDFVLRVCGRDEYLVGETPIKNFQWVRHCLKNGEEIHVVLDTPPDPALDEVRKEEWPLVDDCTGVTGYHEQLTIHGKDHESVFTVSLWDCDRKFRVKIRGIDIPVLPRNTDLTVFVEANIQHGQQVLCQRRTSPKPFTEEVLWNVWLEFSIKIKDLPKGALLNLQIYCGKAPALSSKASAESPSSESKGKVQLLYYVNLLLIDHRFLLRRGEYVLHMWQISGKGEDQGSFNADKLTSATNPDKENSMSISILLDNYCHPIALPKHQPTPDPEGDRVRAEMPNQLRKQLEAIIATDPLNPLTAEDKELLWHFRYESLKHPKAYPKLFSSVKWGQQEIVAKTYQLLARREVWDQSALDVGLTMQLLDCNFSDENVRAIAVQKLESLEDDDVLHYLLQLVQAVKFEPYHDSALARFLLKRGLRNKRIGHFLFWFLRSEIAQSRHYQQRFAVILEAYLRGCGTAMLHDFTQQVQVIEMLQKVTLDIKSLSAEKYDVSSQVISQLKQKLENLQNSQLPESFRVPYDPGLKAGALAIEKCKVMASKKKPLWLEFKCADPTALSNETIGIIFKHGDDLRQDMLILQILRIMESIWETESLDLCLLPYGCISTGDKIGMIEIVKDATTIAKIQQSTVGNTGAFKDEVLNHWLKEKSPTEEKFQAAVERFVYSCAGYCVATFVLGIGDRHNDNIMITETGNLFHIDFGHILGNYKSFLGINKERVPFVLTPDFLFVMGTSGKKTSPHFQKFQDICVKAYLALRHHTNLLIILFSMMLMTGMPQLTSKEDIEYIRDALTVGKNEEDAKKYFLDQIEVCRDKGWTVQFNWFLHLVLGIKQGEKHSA
Chain of PI3Kδ (p110δ/p85α) Recombinant Human Protein (O00329 whole entry): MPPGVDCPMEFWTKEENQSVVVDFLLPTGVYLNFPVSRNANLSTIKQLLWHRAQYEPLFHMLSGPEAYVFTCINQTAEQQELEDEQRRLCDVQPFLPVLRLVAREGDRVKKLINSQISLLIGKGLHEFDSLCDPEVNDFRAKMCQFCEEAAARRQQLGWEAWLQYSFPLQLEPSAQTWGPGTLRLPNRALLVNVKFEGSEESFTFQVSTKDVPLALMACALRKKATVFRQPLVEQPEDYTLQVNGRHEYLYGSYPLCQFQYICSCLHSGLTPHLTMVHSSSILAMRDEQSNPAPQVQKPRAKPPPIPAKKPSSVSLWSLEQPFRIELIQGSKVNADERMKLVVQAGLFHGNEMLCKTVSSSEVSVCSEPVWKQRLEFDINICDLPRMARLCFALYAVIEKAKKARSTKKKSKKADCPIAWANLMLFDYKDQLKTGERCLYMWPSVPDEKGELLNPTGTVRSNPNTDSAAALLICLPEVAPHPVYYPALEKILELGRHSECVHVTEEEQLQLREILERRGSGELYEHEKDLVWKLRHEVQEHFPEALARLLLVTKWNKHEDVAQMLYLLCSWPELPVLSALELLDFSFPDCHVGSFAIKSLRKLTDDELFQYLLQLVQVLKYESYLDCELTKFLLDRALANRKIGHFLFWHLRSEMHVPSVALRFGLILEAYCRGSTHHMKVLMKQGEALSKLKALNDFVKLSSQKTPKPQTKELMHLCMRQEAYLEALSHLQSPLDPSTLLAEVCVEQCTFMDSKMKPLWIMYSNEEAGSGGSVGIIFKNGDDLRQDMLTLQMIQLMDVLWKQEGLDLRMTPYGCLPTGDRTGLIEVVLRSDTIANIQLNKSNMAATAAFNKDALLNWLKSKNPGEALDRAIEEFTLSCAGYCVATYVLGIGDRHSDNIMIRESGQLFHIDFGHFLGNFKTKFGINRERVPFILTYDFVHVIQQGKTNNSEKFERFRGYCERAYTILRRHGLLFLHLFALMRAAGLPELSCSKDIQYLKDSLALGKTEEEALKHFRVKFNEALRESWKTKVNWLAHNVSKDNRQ
Chain of PI3Kδ (p110δ/p85α) Recombinant Human Protein (P27986 whole entry partner): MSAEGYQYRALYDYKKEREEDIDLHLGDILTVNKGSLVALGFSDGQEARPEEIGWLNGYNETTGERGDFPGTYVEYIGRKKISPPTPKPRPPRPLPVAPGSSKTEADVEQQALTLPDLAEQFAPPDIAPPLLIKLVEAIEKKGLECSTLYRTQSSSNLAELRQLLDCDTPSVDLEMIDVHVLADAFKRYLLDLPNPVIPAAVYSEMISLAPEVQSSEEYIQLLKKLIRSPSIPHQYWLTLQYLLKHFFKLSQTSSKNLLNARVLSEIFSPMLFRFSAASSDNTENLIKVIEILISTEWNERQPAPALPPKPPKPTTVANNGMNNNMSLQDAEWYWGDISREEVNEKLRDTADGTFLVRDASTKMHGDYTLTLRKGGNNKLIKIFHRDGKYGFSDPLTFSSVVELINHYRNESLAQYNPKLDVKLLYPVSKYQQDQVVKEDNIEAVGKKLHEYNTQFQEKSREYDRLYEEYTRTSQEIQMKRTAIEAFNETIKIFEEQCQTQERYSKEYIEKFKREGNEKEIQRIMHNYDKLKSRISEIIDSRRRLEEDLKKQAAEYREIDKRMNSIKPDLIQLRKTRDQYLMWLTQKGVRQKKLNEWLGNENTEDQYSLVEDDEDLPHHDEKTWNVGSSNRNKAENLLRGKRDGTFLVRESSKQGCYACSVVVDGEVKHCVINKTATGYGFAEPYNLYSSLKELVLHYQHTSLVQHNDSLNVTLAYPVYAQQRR

Row | SMILES | IC50 [1, 4] [nM] | IC50 [2] [nM] | IC50 [3] [nM] | IC50 ([1]; THP-1 cells) [nM]
1 | CC(NC(=O)c1c(N)nn2cccnc12)c1cc(Cl)c2cncn2c1N1CC[S+]([O-])CC1 (stereo not drawn) [Example 37, 2-Amino-N-(1-[8-chloro-5-(1-oxidothiomorpholin-4-yl)imidazo[1,5-a]pyridin-6-yl]ethyl)pyrazolo[1,5-a]pyrimidine-3-carboxamide trifluoroacetate salt] | < 500 | < 500 | < 100 | –
2 | CCOc1c(C(C)NC(=O)c2c(N)nn3ccc(-c4cncc(OC)c4)nc23)cc(Cl)c2c(Cl)n[nH]c12 (stereo not drawn) [Example 43, 2-Amino-N-(1-(3,4-dichloro-7-ethoxy-1H-indazol-6-yl)ethyl)-5-(5-methoxypyridin-3-yl)pyrazolo[1,5-a]pyrimidine-3-carboxamide trifluoroacetate salt] | < 500 | < 100 | < 100 | –
3 | CCOc1c(C(C)NC(=O)c2c(N)nn3ccc(N4CCCCC4)nc23)cc(Cl)c2cn[nH]c12 (stereo not drawn) [Example 44, 2-Amino-N-(1-(4-chloro-7-ethoxy-1H-indazol-6-yl)ethyl)-5-(piperidin-1-yl)pyrazolo[1,5-a]pyrimidine-3-carboxamide trifluoroacetate salt] | > 1000 | < 2000 | < 500 | –
4 | CCOc1c(C(C)NC(=O)c2c(N)nn3cccnc23)cc(Cl)c2c(Br)n[nH]c12 (stereo not drawn) [Example 52, 2-Amino-N-(1-(3-bromo-4-chloro-7-ethoxy-1H-indazol-6-yl)ethyl)pyrazolo[1,5-a]pyrimidine-3-carboxamide trifluoroacetate] | < 500 | < 500 | < 100 | –
5 | CCOc1c(C(C)NC(=O)c2c(N)nn3cccnc23)cc(Cl)c2c(Br)n(CCO)nc12 (stereo not drawn) [Example 53, 2-Amino-N-(1-(3-bromo-4-chloro-7-ethoxy-2-(2-hydroxyethyl)-2H-indazol-6-yl)ethyl)pyrazolo[1,5-a]pyrimidine-3-carboxamide] | > 1000 | < 2000 | < 100 | –
6 | CCOc1c(C(C)NC(=O)c2c(N)nn3cccnc23)cc(Cl)c2c(Br)nn(CCO)c12 (stereo not drawn) [Example 54, 2-Amino-N-(1-(3-bromo-4-chloro-7-ethoxy-1-(2-hydroxyethyl)-1H-indazol-6-yl)ethyl)pyrazol[1,5-a]pyrimidine-3-carboxamide trifluoroacetate] | – | < 100 | < 100 | > 1000
7 | CC(NC(=O)c1c(N)nn2cccnc12)c1cc(Cl)c2c(C#N)n[nH]c2c1-c1ccccc1 (stereo not drawn) [Example 55, 2-Amino-N-(1-(4-chloro-3-cyano-7-phenyl-1H-indazol-6-yl)ethyl)pyrazolo[1,5-a]pyrimidine-3-carboxamide trifluoroacetate] | > 1000 | < 2000 | < 100 | –
8 | CC(NC(=O)c1c(N)nn2cccnc12)c1cc(Cl)c2ccnn2c1N1CCC(C#N)CC1 (stereo not drawn) [Example 56, 2-Amino-N-(1-(4-chloro-7-(4-cyanopiperidin-1-yl)pyrazolo[1,5-a]pyridin-6-yl)ethyl)pyrazolo[1,5-a]pyrimidine-3-carboxamide trifluoroacetate] | < 500 | < 100 | < 100 | –
9 | C[C@H](NC(=O)c1c(N)nn2cccnc12)c1cc(Cl)c2ccnn2c1N1CCS(=O)(=O)CC1 [Example 57, (S)-2-Amino-N-(1-(4-chloro-7-(1,1-dioxidothiomorpholino)pyrazolo[1,5-a]pyridin-6-yl)ethyl)pyrazolo[1,5-a]pyrimidine-3-carboxamide trifluoroacetate] | < 500 | < 100 | < 100 | –
10 | C[C@H](NC(=O)c1c(N)nn2cccnc12)c1cc(Cl)c2c(F)cnn2c1N1CCS(=O)(=O)CC1 [Example 58, (S)-2-Amino-N-(1-(4-chloro-7-(1,1-dioxidothiomorpholino)-3-fluoropyrazolo[1,5-a]pyridin-6-yl)ethyl)pyrazolo[1,5-a]pyrimidine-3-carboxamide trifluoroacetate] | < 500 | < 100 | < 100 | –
11 | CC(NC(=O)c1c(N)nn2cccnc12)c1cc(Cl)c2ccnn2c1-c1cccnc1 (stereo not drawn) [Example 59, 2-Amino-N-(1-(4-chloro-7-(pyridin-3-yl)pyrazolo[1,5-a]pyridin-6-yl)ethyl)pyrazolo[1,5-a]pyrimidine-3-carboxamide trifluoroacetate] | < 500 | < 100 | < 100 | –
12 | CC(NC(=O)c1c(N)nn2cccnc12)c1cc(Cl)c2c(C#N)cnn2c1N1CCS(=O)(=O)CC1 (stereo not drawn) [Example 60, 2-Amino-N-(1-(4-chloro-3-cyano-7-(1,1-dioxidothiomorpholino)pyrazolo[1,5-a]pyridin-6-yl)ethyl)pyrazolo[1,5-a]pyrimidine-3-carboxamide trifluoroacetate] | < 500 | < 500 | < 100 | –
13 | CC(NC(=O)c1c(N)nn2cccnc12)c1cc(Cl)c2c(C#N)cnn2c1N1CCC[C@H](O)C1 (stereo partly drawn) [Example 61, 2-Amino-N-(1-(4-chloro-3-cyano-7-((S)-3-hydroxypiperidin-1-yl)pyrazolo[1,5-a]pyridin-6-yl)ethyl)pyrazolo[1,5-a]pyrimidine-3-carboxamide trifluoroacetate] | < 1000 | < 2000 | < 100 | –
14 | CC(NC(=O)c1c(N)nn2cccnc12)c1cc(Cl)c2cncn2c1C1CCCC1 (stereo not drawn) [Example 62, 2-amino-N-(1-(8-chloro-5-cyclopentylimidazo[1,5-a]pyridin-6-yl)ethyl)pyrazolo[1,5-a]pyrimidine-3-carboxamide trifluoroacetate] | < 500 | < 500 | < 100 | –
15 | CC(NC(=O)c1c(N)nn2cccnc12)c1cc(Cl)c2cnnn2c1-c1ccccc1 (stereo not drawn) [Example 63, 2-Amino-N-(1-(4-chloro-7-phenyl-[1,2,3]triazolo[1,5-a]pyridin-6-yl)ethyl)pyrazolo[1,5-a]pyrimidine-3-carboxamide trifluoroacetate] | < 500 | < 500 | < 500 | –

The remaining lines, values ahead:

Row | IC50 [1, 4] [nM] | IC50 [2] [nM] | IC50 [3] [nM] | IC50 ([1]; THP-1 cells) [nM] | SMILES
16 | < 500 | < 100 | < 100 | – | CC(NC(=O)c1c(N)nn2cccnc12)c1cc(Cl)c2cncn2c1N1CCS(=O)(=O)CC1 (stereo not drawn) [Example 36, 2-Amino-N-(1-[8-chloro-5-(1,1-dioxidothiomorpholin-4-yl)imidazo[1,5-a]pyridin-6-yl]ethyl)pyrazolo[1,5-a]pyrimidine-3-carboxamide trifluoroacetate salt]
17 | < 500 | < 100 | < 100 | – | CC(NC(=O)c1c(N)nn2cccnc12)c1cc(Cl)c2cncn2c1N1CCS(=O)(=O)CC1C (stereo not drawn) [Example 38B, 2-Amino-N-(1-[8-chloro-5-(3-methyl-1,1-dioxidothiomorpholin-4-yl)imidazo[1,5-a]pyridin-6-yl]ethyl)pyrazolo[1,5-a]pyrimidine-3-carboxamide trifluoroacetate salt]
18 | < 500 | < 100 | < 100 | – | CC(NC(=O)c1c(N)nn2cccnc12)c1cc(Cl)c2cncn2c1N1CCS(=N)(=O)CC1 (stereo not drawn) [Example 39, 2-Amino-N-(1-[8-chloro-5-(1-imino-1-oxidothiomorpholin-4-yl)imidazo[1,5-a]pyridin-6-yl]ethyl)pyrazolo[1,5-a]pyrimidine-3-carboxamide]
19 | < 500 | < 100 | < 100 | – | CC(NC(=O)c1c(N)nn2cccnc12)c1cc(Cl)c2cncn2c1N1CCS(=O)(=O)C(C)(C)C1 (stereo not drawn) [Example 40, 2-Amino-N-(1-[8-chloro-5-(2,2-dimethyl-1,1-dioxidothiomorpholin-4-yl)imidazo[1,5-a]pyridin-6-yl]ethyl)pyrazolo[1,5-a]pyrimidine-3-carboxamide trifluoroacetate salt]
20 | < 500 | < 100 | < 100 | – | CCOc1c(C(C)NC(=O)c2c(N)nn3ccc(-c4cncc(OC)c4)nc23)cc(Cl)c2cn[nH]c12 (stereo not drawn) [Example 41, 2-Amino-N-(1-(4-chloro-7-ethoxy-1H-indazol-6-yl)ethyl)-5-(5-methoxypyridin-3-yl)pyrazolo[1,5-a]pyrimidine-3-carboxamide]
21 | < 500 | < 100 | < 100 | – | CCOc1c(C(C)NC(=O)c2c(N)nn3ccc(-c4cncc(CO)c4)nc23)cc(Cl)c2cn[nH]c12 (stereo not drawn) [Example 42, 2-Amino-N-(1-(4-chloro-7-ethoxy-1H-indazol-6-yl)ethyl)-5-(5-(hydroxymethyl)pyridin-3-yl)pyrazolo[1,5-a]pyrimidine-3-carboxamide]
22 | < 500 | < 100 | < 100 | – | CCOc1c(C(C)NC(=O)c2c(N)nc3ccc(Cl)nn23)cc(Cl)c2cn[nH]c12 (stereo not drawn) [Example 45, 2-Amino-6-chloro-N-(1-(4-chloro-7-ethoxy-1H-indazol-6-yl)ethyl)imidazo[1,2-b]pyridazine-3-carboxamide]
23 | < 500 | < 100 | < 100 | – | CCOc1c(C(C)NC(=O)c2c(N)nc3ccc(-c4cncc(CO)c4)nn23)cc(Cl)c2cn[nH]c12 (stereo not drawn) [Example 48, 2-Amino-N-(1-(4-chloro-7-ethoxy-1H-indazol-6-yl)ethyl)-6-(5-(hydroxymethyl)pyridin-3-yl)imidazo[1,2-b]pyridazine-3-carboxamide]
24 | < 500 | < 100 | < 100 | – | CCOc1c(C(C)NC(=O)c2c(N)nc3ccc(-c4cncc(CO)c4)nn23)cc(Cl)c2c(Cl)n[nH]c12 (stereo not drawn) [Example 49, 2-Amino-N-(1-(3,4-dichloro-7-ethoxy-1H-indazol-6-yl)ethyl)-6-(5-(hydroxymethyl)pyridin-3-yl)imidazo[1,2-b]pyridazine-3-carboxamide]
25 | < 500 | < 100 | < 100 | – | CCOc1c(C(C)NC(=O)c2c(N)nn3ccc(-c4cccnc4)nc23)cc(Cl)c2cn[nH]c12 (stereo not drawn) [Example 50, 2-Amino-N-[1-(4-chloro-7-ethoxy-1H-indazol-6-yl)ethyl]-5-pyridin-3-ylpyrazolo[1,5-a]pyrimidine-3-carboxamide bis(trifluoroacetate)]
